Laboratory results reported in PMC3293798, “Amino Acid Residues Contributing to Function of the Heteromeric Insect Olfactory Receptor Complex” (PLoS ONE, 2012).
Numbering of substitutions follows the chain as printed.

Tests used:
Type in all cases: cell-based
BmOr-1-BmOrco [1] = biological target: T1, BmOr-1-BmOrco (Bombyx mori, UniProt Q5WA61); test: two-electrode voltage clamp, Xenopus oocytes, bombykol response after MTSET; details: covalent; Cys modification of native Cys suggested; 60 s pretreatment; bombykol 1 µM
T1 construct: full-length cRNAs from modified pSPUTK vector, co-injected (25 ng each) in Xenopus laevis oocytes; heteromer of unknown stoichiometry; with Odorant receptor coreceptor
T1 sequence (Q5WA61 1-430): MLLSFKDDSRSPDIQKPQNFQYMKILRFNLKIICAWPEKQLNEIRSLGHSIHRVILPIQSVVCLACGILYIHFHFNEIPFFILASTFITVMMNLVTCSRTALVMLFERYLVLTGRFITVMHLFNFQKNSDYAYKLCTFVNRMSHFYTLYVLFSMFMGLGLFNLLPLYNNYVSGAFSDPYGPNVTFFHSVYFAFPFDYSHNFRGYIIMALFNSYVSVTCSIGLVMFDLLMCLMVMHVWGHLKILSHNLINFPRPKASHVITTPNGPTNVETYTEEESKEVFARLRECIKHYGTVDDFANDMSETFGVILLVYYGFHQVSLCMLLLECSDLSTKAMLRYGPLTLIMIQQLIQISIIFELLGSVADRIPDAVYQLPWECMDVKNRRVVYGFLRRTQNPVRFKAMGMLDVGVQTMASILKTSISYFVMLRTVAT
T1 sequence (Q7YT34 1-472 partner): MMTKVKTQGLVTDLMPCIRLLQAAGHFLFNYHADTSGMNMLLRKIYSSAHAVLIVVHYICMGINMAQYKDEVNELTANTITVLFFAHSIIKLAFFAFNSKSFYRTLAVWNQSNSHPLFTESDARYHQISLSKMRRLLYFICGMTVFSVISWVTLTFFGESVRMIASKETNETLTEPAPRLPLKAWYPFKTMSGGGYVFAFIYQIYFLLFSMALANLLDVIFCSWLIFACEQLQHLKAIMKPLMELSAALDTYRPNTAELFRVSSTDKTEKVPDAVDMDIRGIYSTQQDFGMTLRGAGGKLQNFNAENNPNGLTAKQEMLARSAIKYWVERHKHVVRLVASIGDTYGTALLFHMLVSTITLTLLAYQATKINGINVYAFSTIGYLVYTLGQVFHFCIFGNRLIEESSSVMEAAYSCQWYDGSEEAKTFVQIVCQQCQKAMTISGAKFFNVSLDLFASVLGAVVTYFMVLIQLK

BmOr-1-BmOrco [2] = biological target: T1, BmOr-1-BmOrco; test: two-electrode voltage clamp, Xenopus oocytes, dose-response
BmOr-1-BmOrco [3] = biological target: T2, BmOr-1-BmOrco (Bombyx mori, UniProt Q5WA61, E356C); test: as above
T2 construct: full-length cRNAs from modified pSPUTK vector, co-injected (25 ng each) in Xenopus laevis oocytes; heteromer of unknown stoichiometry; with Odorant receptor coreceptor
T2 sequence (Q5WA61 1-430 E356C): T1 sequence (Q5WA61 1-430) with E356C
T2 sequence (Q7YT34 1-472 partner): T1 sequence (Q7YT34 1-472 partner)

[4] = biological target: T3, Or47a with Drosophila Orco (Drosophila melanogaster, UniProt P81921); test: two-electrode voltage clamp, Xenopus oocytes, current-voltage curves; details: agonist; 1 mM odorant
T3 construct: full-length cRNAs co-injected in Xenopus laevis oocytes; heteromer of unknown stoichiometry; with Odorant receptor coreceptor
T3 sequence (P81921 1-385): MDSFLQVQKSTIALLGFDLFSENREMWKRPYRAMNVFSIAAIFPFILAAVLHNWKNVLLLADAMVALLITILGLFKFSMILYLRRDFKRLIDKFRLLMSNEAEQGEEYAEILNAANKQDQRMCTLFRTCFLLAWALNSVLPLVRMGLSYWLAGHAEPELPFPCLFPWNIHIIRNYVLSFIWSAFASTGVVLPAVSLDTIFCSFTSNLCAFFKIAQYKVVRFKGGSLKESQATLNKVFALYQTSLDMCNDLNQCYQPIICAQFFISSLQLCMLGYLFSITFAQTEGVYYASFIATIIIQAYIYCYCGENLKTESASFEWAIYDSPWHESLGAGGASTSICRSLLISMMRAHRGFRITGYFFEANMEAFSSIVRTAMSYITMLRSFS
T3 sequence (Q9VNB5 1-486 partner): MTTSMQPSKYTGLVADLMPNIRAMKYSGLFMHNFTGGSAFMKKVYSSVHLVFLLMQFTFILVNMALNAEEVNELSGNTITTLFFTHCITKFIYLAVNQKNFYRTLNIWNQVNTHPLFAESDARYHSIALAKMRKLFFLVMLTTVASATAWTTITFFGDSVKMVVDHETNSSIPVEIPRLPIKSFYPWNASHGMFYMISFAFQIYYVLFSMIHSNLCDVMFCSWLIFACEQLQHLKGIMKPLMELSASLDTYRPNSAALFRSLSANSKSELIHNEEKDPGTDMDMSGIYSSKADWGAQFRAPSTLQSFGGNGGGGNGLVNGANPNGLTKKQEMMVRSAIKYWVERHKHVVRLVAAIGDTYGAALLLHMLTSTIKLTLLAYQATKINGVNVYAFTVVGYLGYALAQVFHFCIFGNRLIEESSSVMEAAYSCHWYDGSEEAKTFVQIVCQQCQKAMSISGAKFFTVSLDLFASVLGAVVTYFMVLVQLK

[5] = biological target: T4, Or22a with Drosophila Orco (Drosophila melanogaster, UniProt P81909); test: as above; details: agonist; 1 mM odorant
T4 construct: full-length cRNAs co-injected in Xenopus laevis oocytes; heteromer of unknown stoichiometry; with Odorant receptor coreceptor
T4 sequence (P81909 1-397): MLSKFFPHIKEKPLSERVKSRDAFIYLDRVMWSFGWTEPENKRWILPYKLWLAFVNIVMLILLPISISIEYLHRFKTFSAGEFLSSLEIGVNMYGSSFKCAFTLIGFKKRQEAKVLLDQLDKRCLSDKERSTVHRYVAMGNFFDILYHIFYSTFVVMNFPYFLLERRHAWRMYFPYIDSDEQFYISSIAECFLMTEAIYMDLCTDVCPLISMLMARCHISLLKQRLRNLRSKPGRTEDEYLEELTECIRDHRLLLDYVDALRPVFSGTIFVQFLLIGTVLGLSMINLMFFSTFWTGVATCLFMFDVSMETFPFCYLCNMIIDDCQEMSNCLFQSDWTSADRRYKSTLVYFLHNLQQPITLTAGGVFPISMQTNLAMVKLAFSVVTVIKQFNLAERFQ
T4 sequence (Q9VNB5 1-486 partner): T3 sequence (Q9VNB5 1-486 partner)

**Q.** With `C[N+](C)(C)CCSS(C)(=O)=O` [MTSET] as the compound, how does the “% reduction of bombykol response at 2.5 mM” value (BmOr-1-BmOrco [1]) read?
**A.** Its value is 46%.

**Q.** For `CCC/C=C\C=C\CCCCCCCCCO` [Bombykol], which EC50 (BmOr-1-BmOrco [2]) is on record?
**A.** Its EC50 is 190 nM.

**Q.** What about the EC50 (BmOr-1-BmOrco [3]) of the same compound?
**A.** Its EC50 is 300 nM.

**Q.** How did the “two-electrode voltage clamp, Xenopus oocytes, current-voltage curves” value [4] turn out when `CCCCCOC(C)=O` [pentyl acetate] was run?
**A.** The value was “channels gated by their cognate ligands (ethyl butyrate, pentyl acetate”.

**Q.** `CCCC(=O)OCC` [ethyl butyrate] was tested. Which “two-electrode voltage clamp, Xenopus oocytes, current-voltage curves” value [5] did it give?
**A.** The value was “channels gated by their cognate ligands (ethyl butyrate, pentyl acetate”.
